Test results taken from publication PMC4735555, “Crystal structure of the N-myristoylated lipopeptide-bound MHC class I complex” (Nature Communications, 2016).

Key:
Mamu-B*098 = test: Biolayer interferometry binding to β2m-linked Mamu-B*098; design: species or system rhesus macaque; conditions: Octet RED96; biotinylated β2m-linked Mamu-B*098; lipopeptide 10 μM, 45 min, then 30 min without; 20 mM Tris-HCl pH 7.5, 150 mM NaCl, 2% DMSO; 30 °C; representative of three independent experiments
Excerpt: (§1) Single-chain MHC proteins in which β2m was linked via a Gly-Ser linker (GGGGSGGSGSGGGSS) to the ectodomain of either Mamu-B*098 or Mamu-A*02, followed by a biotinylation sequence peptide (LHHILDAQKMVWNHR), were also expressed in E. coli and were purified in a similar manner to the trimer complex of Mamu-B*098, β2m and C14nef5. The β2m-linked Mamu-B*098 protein was refolded without C14nef5, whereas the β2m-linked Mamu-A*02 protein was refolded in the presence of the YY9 peptide (YTSGPGIRY). These recombinant proteins (3 mg) were biotinylated by being incubated for 12 h at 20 °C with 2 μg of BirA enzyme (Sigma-Aldrich, St Louis, MO) in a biotinylation buffer containing 100 mM Tris-HCl pH 8.0, 5 mM MgCl2, 4.5 mM ATP and 4 mM D-biotin, and were purified by size-exclusion chromatography.
The binding of ligands to MHC class I molecules was analysed using the Octet RED96 system equipped with a streptavidin-conjugated biosensor (Pall ForteBio, Menlo Park, CA) according to the manufacturer's instructions. Biotinylated β2m-linked Mamu-B*098 and Mamu-A*02 proteins were immobilized on the sensor tip surface with a signal magnitude of ∼5.0 nm. […] After reference subtraction, binding signals were analysed using the BIAevaluation 3.1 software. […]

[1] = test system: 2N5.1 (plate-coated Mamu-B*098); test: T-cell assay with plate-coated Mamu-B*098, IFN-γ release by 2N5.1; format: cell-based, rhesus macaque; conditions: 10 μg MHC protein, 1 μg lipopeptide loaded overnight 37 °C; 5 × 10^4 T cells per well, 24 h; IFN-γ ELISA
Excerpt: as §1
Streptavidin-coated 96-well plates (Thermo Scientific, Hudson, NH) were overlaid with 10 μg of the biotinylated β2m-linked Mamu-B*098 and Mamu-A*02 proteins, and lipopeptide Ags (1 μg) were loaded by an overnight incubation at 37 °C. The wells were then washed extensively and T cells (5 × 10^4 per well) were added. After a 24-h incubation at 37 °C, aliquots of the culture supernatants were collected and the amount of IFN-γ released into the medium was measured by a human/monkey IFN-γ enzyme-linked immunosorbent assay kit (Mabtech, Nacka Strand, Sweden).

[2] = test system: 2N5.1 (Mamu-B*098-transfected LLC-MK2 cells as Ag-presenting cells); test: Ag presentation by LLC-MK2 cells transfected with rhesus MHC class I (Mamu) cDNA to 2N5.1; format: cell-based, rhesus macaque; conditions: C14nef5 presented by LLC-MK2 expressing Mamu-B*098; in triplicate, mean with s.e.m. (graph)
Method: Figure 1 Identification of Mamu-B*098 as a lipopeptide Ag-presenting molecule. (a) LLC-MK2 cells transfected with each of the rhesus MHC class I genes were tested for their ability to present C14nef5 to 2N5.1. […] PBMCs obtained from a donor with the potential to present C14nef5 to 2N5.1 were used as a positive control. Experiments were performed in triplicate. Mean values with s.e.m. are shown. (b) The binding of lipopeptide Ags to recombinant β2m-linked Mamu-B*098 and Mamu-A*02 proteins was monitored by biolayer interferometry. Representative data from three independent experiments are shown. Mamu-A*02, a rhesus MHC class I allele known to bind 9-mer peptides, was used as a negative control. (c) Plate-coated MHC class I molecules were tested for their ability to present lipopeptide Ags to 2N5.1. The Ag-specific T-cell response was assessed by measuring the amount of IFN-γ released into the culture medium. Mean values with s.e.m. are shown. […] The original data (coloured as indicated) are depicted with the curve fit (grey) overlaid. The steady-state affinity plot (inset) is also shown. Three independent experiments were performed and mean equilibrium-dissociation constant (KD) values ±s.d. are shown. (e) Amino acid sequences of Mamu-B*098, HLA-B*27:09, Mamu-B*17:01 and human CD1a are shown. […] Solid and open triangles indicate paired and unpaired cysteine residues, respectively. […]

[3] = test system: 2N5.1 (Mamu-B*098 Cys167 to Ser mutant); test: Presentation of C14nef5 to 2N5.1 by the cysteine to serine (position 167) mutant of Mamu-B*098; format: cell-based, rhesus macaque; conditions: data not shown

Substance: C14-Gly-Gly-Ala-Ile-Ser [C14nef5, N-myristoylated 5-mer peptide (C14-Gly-Gly-Ala-Ile-Ser; C14nef5) derived from the SIV Nef protein]
- physical interaction with immobilized Mamu-B*098 (biolayer interferometry) (Mamu-B*098): demonstrated for Mamu-B*098
- IFN-γ response of 2N5.1 to plate-coated Mamu-B*098 with lipopeptide Ag [1]: sufficient for stimulating 2N5.1 to produce IFN-γ
- stimulation of 2N5.1 to produce IFN-γ by Mamu-B*098-transfected LLC-MK2 cells [2]: stimulated 2N5.1 cells to produce interferon-γ (IFN-γ)
- effect of Cys167 to Ser mutation on ability of Mamu-B*098 to present C14nef5 to 2N5.1 [3]: affected neither the overall secondary structure nor the ability of Mamu-B*098 to present C14nef5 to 2N5.1
